Assay results published in PubChem BioAssay AID1963844 (Molecular Pharmacology Branch, DTP, NCI, 2024).

Test system: 422866-222-R5-J1-PDC complex spheroid viability
Test: Anticancer human tumor 422866-222-R5-J1-PDC patient-derived pancreatic adenocarcinoma cell line growth inhibition [POLQ]
Conditions: for IC50: curve of first compound; for viability, T/C: stronger effect = lower value
Procedure: Multicellular complex tumor spheroid response to Polymerase (POL) inhibitors (novobiocin, ART-558, RP6685) in combination with a variety of drugs and investigational agents in selected tumor cell lines
The POL inhibitors (novobiocin, ART-558, and RP6685) were evaluated both individually and in combination with standard of care and investigational anticancer small molecules within a complex spheroid model of solid tumors. . Complex spheroids include a stromal component modeled by human endothelial cells (HUVEC) and fibroblasts modeled by human mesenchymal stem cells (MSCs). The concentration ranges selected for each drug and investigational agent were based upon clinically achievable concentrations if the clinical Cmax of the agent was known.
Compounds. The drugs and investigational agents: novobiocin (NSC847541), ART-558 (NSC835418), RP-6685 (NSC848927), peposertib (NSC802822), ceralasertib (NSC780249), elimusertib (NSC800525), camonsertib (NSC841442), AZD-1390 (NSC803789), olaparib (NSC753686), talazoparib (NSC767125), rucaparib (NSC756644), sotorasib (NSC818433), MRTX-1133 (NSC836407), SN-38 (NSC673596), topotecan (NSC609699), epotoside (NSC141540), doxorubicin (NSC123127), gemcitabine (NSC613327), 5-fluorouracil (NSC19893), paclitaxel (NSC125973), vemurafenib (NSC761431), MSA-2 (NSC828583), SN-011 (NSC837082), adavosertib (NSC754352), prexasertib (NSC758257), carboplatin (NSC241240) and oxaliplatin (NSC266046), were obtained from the National Cancer Institute (NCI) Developmental Therapeutics Program Chemical Repository (21). The FDA-approved anticancer drug set is available from the Developmental Therapeutics Program at https://dtp.cancer.gov/organization/dscb/obtaining/. […] The stock solutions were prepared in dimethyl sulfoxide (DMSO, Sigma-Aldrich, St. Louis, MO, cat. D2650), except for the platinum compounds which were prepared in saline (Quality Biological, Gaithersburg, MD, cat. 114-055-101), at 800-fold the tested concentration and stored at -70 degrees C prior to their use. All drugs and investigational agents were tested over a range starting from a high concentration at or near the clinical Cmax and decreasing in half-log increments. If the clinical Cmax for an agent had not been determined, the highest concentration tested was 10 microM, except for SN-38, which was tested at a high concentration of 1 microM.
Cell Culture. All cells were maintained in an incubator at 37 degrees C and 5% CO2 with 95% humidity. The PDC lines were cultured according to standard operating procedures established by the NCI PDMR (https://pdmr.cancer.gov). Table 3 of the manuscript, lists the cell lines along with the number of the three cell types plated to form the mct-spheroids and media for tumor cell growth. After thawing, all PDC lines, except 997537-175-T-J1-PDC and 415267-285-R-J2-PDC, were cultured in Matrigel-coated flasks prepared with a working solution of 1X Ham's F-12 nutrient mix, without supplementation (Thermo Fisher Scientific, cat. 11765054), 100 U/mL penicillin-streptomycin (Thermo Fisher Scientific, cat. 15140122), and 2.5% Matrigel (Corning Inc., Corning, NY, cat. 354248) for the first three passages. The two PDC lines 997537-175-T-J1-PDC and 415267-285-R-J2-PDC were cultured on uncoated flasks. The 857933-349-R-J2-PDC line was cultured in 6C/Colon 1B media containing advanced DMEM/F-12 (Thermo Fisher Scientific, cat. 12634028), 10 mM HEPES (Thermo Fisher Scientific, cat. 15630080), 1X GlutaMAX supplement (Thermo Fisher Scientific, cat. 35050061), 0.1 mg/mL primocin (InvivoGen, San Diego, CA, cat. ant-pm-2), 10% defined fetal bovine serum, heat inactivated (HyClone Laboratories Inc., Logan, UT, cat. SH30070.03HI), 50% L-WRN conditioned media (ATCC, cat. CRL-3276), 1.25 mM N-Acetyl-L-cysteine (Sigma-Aldrich, cat. A9165), 10 mM nicotinamide (Sigma-Aldrich, cat. N0636), 1X B-27 supplement (Thermo Fisher Scientific, cat. 17504044), 1X N-2 supplement (Thermo Fisher Scientific, cat. […]
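Note: spheroids exposed to compounds for one week before readout.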
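Throughout, for viability, T/C: percent of DMSO vehicle wells luminescence so 100% = untreated viability.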

CCCS(=O)(=O)Nc1ccc(F)c(C(=O)c2c[nH]c3ncc(-c4ccc(Cl)cc4)cc23)c1F + Cc1cccc(N(C)C(=O)C2C(O)CCN2c2nc(C)cc(C(F)(F)F)c2C#N)c1
IC50 (second compound 0.0316 µM): > 10 µM | IC50 (second compound 0.1 µM): > 10 µM | IC50 (second compound 0.316 µM): > 10 µM | IC50 (second compound 1 µM): > 10 µM | IC50 (second compound 3.16 µM): > 10 µM | IC50 (second compound 10 µM): > 10 µM | viability, T/C (second compound 0.0316 µM, first compound 0.0316 µM): 92.3% | viability, T/C (second compound 0.0316 µM, first compound 0.1 µM): 115% | viability, T/C (second compound 0.0316 µM, first compound 0.316 µM): 122% | viability, T/C (second compound 0.0316 µM, first compound 1 µM): 156% | viability, T/C (second compound 0.0316 µM, first compound 3.16 µM): 214% | viability, T/C (second compound 0.0316 µM, first compound 10 µM): 102% | viability, T/C (second compound 0.1 µM, first compound 0.0316 µM): 93% | viability, T/C (second compound 0.1 µM, first compound 0.1 µM): 99.1% | viability, T/C (second compound 0.1 µM, first compound 0.316 µM): 111% | viability, T/C (second compound 0.1 µM, first compound 1 µM): 138% | viability, T/C (second compound 0.1 µM, first compound 3.16 µM): 200% | viability, T/C (second compound 0.1 µM, first compound 10 µM): 102% | viability, T/C (second compound 0.316 µM, first compound 0.0316 µM): 92.6% | viability, T/C (second compound 0.316 µM, first compound 0.1 µM): 105% | viability, T/C (second compound 0.316 µM, first compound 0.316 µM): 135% | viability, T/C (second compound 0.316 µM, first compound 1 µM): 164% | viability, T/C (second compound 0.316 µM, first compound 3.16 µM): 143% | viability, T/C (second compound 0.316 µM, first compound 10 µM): 94.9% | viability, T/C (second compound 1 µM, first compound 0.0316 µM): 98.5% | viability, T/C (second compound 1 µM, first compound 0.1 µM): 104% | viability, T/C (second compound 1 µM, first compound 0.316 µM): 124% | viability, T/C (second compound 1 µM, first compound 1 µM): 145% | viability, T/C (second compound 1 µM, first compound 3.16 µM): 192% | viability, T/C (second compound 1 µM, first compound 10 µM): 94.8% | viability, T/C (second compound 3.16 µM, first compound 0.0316 µM): 99.4% | viability, T/C (second compound 3.16 µM, first compound 0.1 µM): 105% | viability, T/C (second compound 3.16 µM, first compound 0.316 µM): 138% | viability, T/C (second compound 3.16 µM, first compound 1 µM): 163% | viability, T/C (second compound 3.16 µM, first compound 3.16 µM): 205% | viability, T/C (second compound 3.16 µM, first compound 10 µM): 107% | viability, T/C (second compound 10 µM, first compound 0.0316 µM): 84.4% | viability, T/C (second compound 10 µM, first compound 0.1 µM): 97% | viability, T/C (second compound 10 µM, first compound 0.316 µM): 124% | viability, T/C (second compound 10 µM, first compound 1 µM): 149% | viability, T/C (second compound 10 µM, first compound 3.16 µM): 188% | viability, T/C (second compound 10 µM, first compound 10 µM): 79.2%
